Reference: patent US20180209962A1, “SCREENING METHOD USING INDUCED NEURONS” (KYOTO UNIVERSITY, priority 2014, published 2018)
Each block holds one molecule with its values, some of them ahead of it.

Columns and labels:
Type in all cases: cell-based
[1] = test system: mouse tauopathy iNs and mouse normal iNs; assay: Action potential / excitatory postsynaptic current of iNs in the presence of glutamate receptor antagonists; conditions: for generation of excitatory postsynaptic current: mouse normal iNs, CNQX and AP-5 administered together; for generation of action potential: mouse tauopathy iNs and mouse normal iNs, AP-5 and CNQX present together
Source text: FIGS. 1A and 1B show results of confirming, by immunostaining (FIG. 1A) or RT-PCR (FIG. 1B), that iPSCs prepared from a transgenic mouse harboring a P301S mutant human MAPT gene (tauopathy mouse), or its non-transgenic litter (normal mouse) express an undifferentiation marker (Esg1, Eras, Nanog, or SSEA1). In FIG. 1B, tauopathy mouse MEFs (MEF) were used as a negative control, and mouse embryonic stem cells (ESCs) were used as a positive control. […] The inserted drawings show enlarged diagrams of neurites.
Accordingly, these iNs were confirmed to be glutamatergic neurons.

mouse tauopathy iNs [2] = assay: Dot blot of tau oligomer in culture supernatant and cell extracts of mouse tauopathy iNs; conditions: added at day 5, 48 hours later, final concentration 25 μM
Description: (§1) FIG. 7 FIGS. 7A and 7B show results of adding AP-5 (final concentration: 25 μM) or CNQX (final concentration: 25 μM) to mouse tauopathy iNs or mouse normal iNs of day 5, preparing a culture supernatant and cell extracts 48 hours later, and analyzing the amounts of tau and a tau oligomer contained in the culture supernatant and the cell extracts by dot blot (FIG. 7A), and the results of quantifying their signals (FIG. 7B). In FIGS. 7C and 7D, AP-5 or CNQX was added to mouse tauopathy iNs of day 7, and a survival rate at day 10 (=the number of live neurons at day 10/the number of live neurons at day 7)×100) was indicated in a graph.
Cells were recovered from the culture system of iNs, suspended in TBS (Tris buffered saline) containing a protease inhibitor and a phosphatase inhibitor, and then ultrasonicated to homogenize the cells. The cell homogenates were centrifuged (13,000×g, 15 min), and the supernatant was recovered as cell extracts. The cell extracts from the iNs of each type were blotted at 1.2 μg protein/spot onto a nitrocellulose membrane (pore size: 0.45 μm, GE Healthcare Japan Corp.).
Also, a medium was recovered from the cell culture system and subjected to low-speed centrifugation (1,000 rpm, 3 min) to precipitate cellular debris. The obtained supernatant was recovered as a culture supernatant. A 500 μl aliquot of each culture supernatant was transferred to a tube with an ultrafiltration filter (Vivaspin, molecular weight cutoff: 10 kD, GE Healthcare Japan Corp.) and concentrated to 50 μl. 2 μl of each concentrated sample was blotted onto the nitrocellulose membrane.
The nitrocellulose membrane obtained by the method was treated with various tau antibodies according to a standard method, followed by detection (Western Lightning Plus-ECL, PerkinElmer, Inc.) and signal quantification (ImageQuant LAS4000, GE Healthcare Japan Corp.). Tau 12, Tau 5, and TOC1 antibodies were used a human tau-specific antibody, an antibody recognizing human tau and mouse tau, and a tau oligomer-specific antibody, respectively. In Examples of the present application, the TOC1 antibody (Non-Patent Document 13) used was provided by Dr. Nicholas Kanaan from Department of Translational Science and Molecular Medicine, College of Human Medicine, Michigan State University (USA).
(§2) AP-5 or CNQX was added to the culture system of mouse tauopathy iNs of day 5. 48 hours later, a culture supernatant and cell extracts were prepared therefrom, and the amount of a tau oligomer, the amount of human tau, and the total amount of tau were analyzed by dot blot (FIGS. 7A and 7B). Also, AP-5 or CNQX was added to the culture system of mouse tauopathy iNs of day 7. Three days later, a cell survival rate was calculated (FIGS. 7C and 7D).

mouse tauopathy iNs [3] = assay: Cell survival rate of mouse tauopathy iNs; conditions: added at day 7, survival at day 10
Description: as §1, §2

human tauopathy iNs [4] = assay: Cell survival rate of human tauopathy iNs; conditions: added at day 16, survival at day 21
Source text: FIGS. 10A and 10B show results of measuring change in intracellular calcium concentration between before and after electric stimulation by use of a calcium imaging method in human tauopathy iNs or human normal iNs of day 12 (FIG. 10A, n=6). The arrows shown in the abscissa represent time points at which the cells were given electric stimulation. The ordinate (ΔF/F) depicts change in the fluorescence intensity of a calcium indicator (Fluo-8/AM) after the stimulation with respect to its baseline fluorescence intensity. FIG. 10B is a graph on which the largest value of the ΔF/F was plotted. […] The upper left panel “pre” depicts the human tauopathy iNs of day 16 before the addition of the reagent.
Next, AP-5 or CNQX was added to the culture system of human tauopathy iNs of day 16, and a cell survival rate at day 21 was calculated. The treatment with any of these agents tended to elevate the cell survival rate.

human tauopathy iNs [5] = assay: Sucrose density-gradient fractionation, localization of tau oligomer and lipid raft; conditions: tauopathy iNs treated with MbCD, then sucrose density-gradient fractionation, Western blot
Source text: FIGS. 11A and 11B show results of preparing a culture supernatant and cell extracts from human tauopathy iNs or human normal iNs of day 14 and analyzing the amounts of human tau and a tau oligomer contained in the culture supernatant or the cell extracts by use of dot blot (FIG. 11A), and graphs on which their signals were quantified (FIG. 11B).
Lipid raft was biochemically isolated from human tauopathy iNs or human normal iNs and analyzed for its colocalization with a tau oligomer. Specifically, iNs were homogenized using a 29-gauge needle in a buffer containing 1% Lubrol and a protease inhibitor, and the cell homogenates were adjusted to a sucrose concentration of 40%. Then, a 0.7 ml aliquot thereof was fractionated by the sucrose density-gradient centrifugation method. The sucrose density gradient used was steps of 30% (1.4 ml), 27.5% (0.7 ml), 24% (1.4 ml), and 3% […] (5-ml tube), and the centrifugation conditions involved 50,000 rpm, 4° C., and 16 hours using Optima-MAX XP1 (Beckman Coulter, Inc.). After the centrifugation, a 0.7 ml aliquot was recovered from the upper layer to obtain 7 fractions (F1 to F7).
The lipid raft (GM1 ganglioside) was recovered into F2 and F3 of the human normal iNs and contained in F2 and F3 as well as in a small amount in F4 of human tauopathy iNs. The tau oligomer in the tauopathy iNs was contained mainly in F3 and also contained in F2 and F4. […]

human normal iNs [6] = assay: Spontaneous firing rate using a MEA system; conditions: final concentration 1 μg/ml
Description: iPSCs for neural differentiation were inoculated to a culture dish for the exclusive use of MEA coated with poly-L-lysine and Matrigel, and induced to differentiate into neurons according to the [Approach 2]. At day 8 (mouse iNs) or day 12 (human iNs), extracellular electrical recordings were measured using a multielectrode array system (MEA60, Multi Channel Systems MCS GmbH). Data was obtained using MC_Rack software (extracellular electrical recordings). Offline Sorter ver. 3 (Plexon Inc.) was used in spike analysis. The spikes were sorted and then analyzed using Neuroexplorer software (Nex Technologies, LLC).
A culture supernatant of human tauopathy iNs or human normal iNs of days 12 to 14 was added to human normal iNs of day 20, and a spontaneous firing rate was measured using the MEA system of the [Approach 6]. […] By contrast, in the human normal iNs supplemented with the culture supernatant of the human normal iNs, no increase in spontaneous firing rate occurred substantially (FIGS. 12E and 12F).
The P301S tau monomer or the P301S tau oligomer was added (final concentration: 1 μg/ml) to the culture system of human normal iNs, and a spontaneous firing rate was measured using a MEA system ([Approach 6]). […]

human normal iNs [7] = assay: Cell survival rate of human normal iNs after addition of P301S tau monomer or oligomer; conditions: for cell survival rate: two days later
Description: FIGS. 13D and 13F show results of adding the tau monomer or the tau oligomer of FIG. 13A to a medium of human normal iNs of day 20 and measuring a spontaneous firing rate using a MEA system (FIG. 13D). The arrows represent the timing at which the tau monomer or the tau oligomer was added. FIG. 13E is a graph indicating the ratio of spike number between before and after the addition.
P301S mutant human tau produced as a recombinant protein was oligomerized by incubation in the presence of heparin. Specifically, 0.5 mg/ml tau protein was incubated at 37° C. for 16 hours in a 10 mM HEPES buffer (pH 7.4) containing 10 μM heparin (Sigma-Aldrich Co. LLC) and 100 mM NaCl (Sahara N. and Takashima A, EMBO J., 26: 5143-52, 2007). Then, the solution was treated at 70° C. for 15 minutes and then subjected to SDS-PAGE and silver staining. As is evident, the tau before the incubation in the presence of the heparin was mostly monomeric and dimeric, whereas the tau after the incubation included a large number of trimeric or larger associates (i.e., tau oligomers). Hereinafter, the tau before the incubation in the presence of the heparin is referred to as a “P301S tau monomer”, and the tau after the incubation is referred to as a “P301S tau oligomer”.
The P301S tau monomer or the P301S tau oligomer was added to the culture system of human normal iNs, followed by cell survival rate analysis two days later.

Molecule: N[C@H](CCCP(=O)(O)O)C(=O)O [AP-5, D-(−)-2-amino-5-phosphononpentanoic acid]
generation of excitatory postsynaptic current [1]: suppressed | generation of action potential [1]: did not generate action potential | amount of a tau oligomer contained in the cell extracts (mouse tauopathy iNs [2]): no significant change | amount of a tau oligomer contained in the culture supernatant (mouse tauopathy iNs [2]): approximately 50 % of the negative control | cell survival rate (mouse tauopathy iNs [3]): approximately 2 times the negative control | cell survival rate (human tauopathy iNs [4]; 12.5 μM): significantly elevated | cell survival rate (human tauopathy iNs [4]; 25 μM): significantly elevated

generation of excitatory postsynaptic current [1]: suppressed | generation of action potential [1]: did not generate action potential
Molecule: N#Cc1cc2c(cc1[N+](=O)[O-])=NC(=O)C(=O)N=2 [CNQX, 6-cyano-7-nitroquinoxaline-2,3-dione]
amount of a tau oligomer contained in the cell extracts (mouse tauopathy iNs [2]): approximately 70 % of the negative control | amount of a tau oligomer contained in the culture supernatant (mouse tauopathy iNs [2]): approximately 50 % of the negative control | cell survival rate (mouse tauopathy iNs [3]): approximately 2 times the negative control | cell survival rate (human tauopathy iNs [4]; 25 μM): significantly elevated

Molecule: Methyl-β-cyclodextrin [MbCD]
recovery of tau oligomer into lipid raft fractions (human tauopathy iNs [5]): not recovered into F2 to F4

Molecule: P301S tau monomer: recombinant P301S mutant human tau before the incubation with heparin, mostly monomeric and dimeric
spontaneous firing rate (human normal iNs [6]): approximately 120 % of that before the addition | cell survival rate (human normal iNs [7]; 1 μg/ml): not changed

Molecule: P301S tau oligomer: recombinant P301S mutant human tau after incubation in the presence of heparin; trimeric or larger associates
spontaneous firing rate (human normal iNs [6]): approximately 290 % of that before the addition | cell survival rate (human normal iNs [7]; 0.1 μg/ml): significantly decreased | induction of cell death (human normal iNs [7]; 100 ng/ml): tended to induce cell death, albeit not significant | cell survival rate (human normal iNs [7]; 1 μg/ml): significantly decreased
